Assay results: the NIST ThermoML archive (doi:10.1016/j.fluid.2011.02.015)

Conditions: Liquid, hot wire

FC(F)(F)CC(F)(F)F [1,1,1,3,3,3-hexafluoropropane]
Conditions	thermal conductivity [W/m/K]
252.57 K, 10000 kPa	0.0912
252.8 K, 5000 kPa	0.0891
252.87 K, 100 kPa	0.0873
252.92 K, 10000 kPa	0.0914
253.16 K, 5000 kPa	0.0887
253.24 K, 20000 kPa	0.0955
253.38 K, 100 kPa	0.0872
253.41 K, 30000 kPa	0.0972
253.47 K, 20000 kPa	0.0949
253.51 K, 20000 kPa	0.0952
253.6 K, 10000 kPa	0.0911
253.65 K, 5000 kPa	0.0891
253.66 K, 100 kPa	0.0872
253.86 K, 30000 kPa	0.0971
255.05 K, 30000 kPa	0.0973
272.91 K, 30000 kPa	0.0926
273.36 K, 10000 kPa	0.0847
273.45 K, 20000 kPa	0.0896
273.49 K, 1000 kPa	0.0814
273.66 K, 10000 kPa	0.0851
273.82 K, 5000 kPa	0.0833
273.85 K, 1000 kPa	0.081
273.86 K, 1000 kPa	0.0812
273.95 K, 30000 kPa	0.0929
274.06 K, 20000 kPa	0.0895
274.16 K, 5000 kPa	0.0832
274.27 K, 10000 kPa	0.0855
274.33 K, 30000 kPa	0.0927
274.57 K, 20000 kPa	0.0892
274.63 K, 5000 kPa	0.0835
293.15 K, 10000 kPa	0.0802
293.22 K, 1000 kPa	0.0762
293.42 K, 30000 kPa	0.0894
293.49 K, 1000 kPa	0.0767
293.61 K, 5000 kPa	0.0782
293.65 K, 10000 kPa	0.0805
293.76 K, 5000 kPa	0.0781
293.76 K, 30000 kPa	0.0891
293.85 K, 10000 kPa	0.0802
293.95 K, 5000 kPa	0.0783
294.47 K, 1000 kPa	0.0764
294.54 K, 30000 kPa	0.0893
312.5 K, 5000 kPa	0.0705
312.59 K, 1000 kPa	0.0682
312.89 K, 5000 kPa	0.0709
313.01 K, 1000 kPa	0.0683
313.28 K, 5000 kPa	0.0706
313.39 K, 1000 kPa	0.068
313.53 K, 20000 kPa	0.0809
313.55 K, 10000 kPa	0.0757
313.85 K, 10000 kPa	0.0761
313.86 K, 30000 kPa	0.0853
314.04 K, 10000 kPa	0.0758
314.06 K, 30000 kPa	0.085
314.2 K, 20000 kPa	0.0809
315.13 K, 20000 kPa	0.0815
315.13 K, 30000 kPa	0.0852
332.48 K, 10000 kPa	0.0699
332.49 K, 5000 kPa	0.0654
332.51 K, 1000 kPa	0.0623
332.72 K, 30000 kPa	0.0805
332.79 K, 20000 kPa	0.0756
332.84 K, 30000 kPa	0.0813
332.85 K, 10000 kPa	0.0695
332.87 K, 1000 kPa	0.0624
332.89 K, 5000 kPa	0.0651
333.2 K, 10000 kPa	0.0695
333.24 K, 1000 kPa	0.0623
333.26 K, 5000 kPa	0.0648
333.48 K, 30000 kPa	0.0802
333.59 K, 20000 kPa	0.0755
334.42 K, 20000 kPa	0.0761
353.02 K, 30000 kPa	0.0749
353.17 K, 10000 kPa	0.0636
353.29 K, 20000 kPa	0.0705
353.35 K, 2000 kPa	0.0565
353.35 K, 5000 kPa	0.0593
353.57 K, 30000 kPa	0.0744
353.68 K, 2000 kPa	0.0564
353.74 K, 5000 kPa	0.0592
353.74 K, 20000 kPa	0.0701
353.82 K, 10000 kPa	0.0635
353.95 K, 30000 kPa	0.0741
354.09 K, 20000 kPa	0.0699
354.12 K, 2000 kPa	0.056
354.24 K, 10000 kPa	0.0633
354.4 K, 5000 kPa	0.0594
373.08 K, 10000 kPa	0.0597
373.15 K, 30000 kPa	0.0726
373.22 K, 5000 kPa	0.0554
373.4 K, 20000 kPa	0.0672
373.46 K, 3000 kPa	0.0525
373.56 K, 10000 kPa	0.0596
373.72 K, 5000 kPa	0.0559
373.8 K, 30000 kPa	0.0727
373.84 K, 3000 kPa	0.0524
373.87 K, 20000 kPa	0.0677
374.1 K, 10000 kPa	0.0601
374.21 K, 30000 kPa	0.0724
374.24 K, 5000 kPa	0.0557
374.26 K, 3000 kPa	0.0526
374.57 K, 20000 kPa	0.0672
